Test results as given in patent US12146177B2, “Methods of making and using E,Z,E-geranylgeranyl diphosphate” (WiSys Technology Foundation, Inc., priority 2020, dated 2024).

Tested on: Escherichia coli C41
Format: cell-based
Conditions: compound itself not applied to cells

CC(C)=CCC/C(C)=C/CC/C(C)=C\CC/C(C)=C/COP(=O)(O)OP(=O)(O)O [E,Z,E-GGPP, E,Z,E-Geranylgeranyl pyrophosphate]
bactericidal effect on E. coli: bactericidal agent
